These results are taken from patent US20160046618A1, “Cyclopropyl Fused Thiazin-2-Amine Compounds as Beta-Secretase Inhibitors and Methods of Use” (AMGEN INC., priority 2014, published 2016).

One test has as its target human recombinant BACE1 (Homo sapiens (Human), UniProt P56817). Kind of test: In vitro enzymatic BACE1 FRET assay. In kind it is biochemical. Particulars: read-out: IC50 IP (μM) BACE1 enzyme. The method, boiled down:
(§1)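 Read-out: dequenched fluorescence, excitation 488 nm, emission 590 nm, after proteolysis of a quenched peptide spanning the BACE cleavage site. Substrate at 50 nM, 1 h incubation, termination by Tris addition to neutral pH.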

A further test addresses Recombinant Cat D (Homo sapiens (Human), UniProt P07339). The test is described as follows: In vitro enzymatic Cathepsin D (Cat D) FRET assay. Conditions: read-out: IC50 IP (μM) CatD. Type of test: biochemical. The method, boiled down:
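Assay pH is 3.5 (0.05 M citrate, 5 mM CHAPS, 10% DMSO final) with Cat D from CHO cells. A 20 nM quenched peptide substrate is cleaved over one hour; the reaction is ended with Tris and read by fluorescence (ex 500, em 580 nm).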

The subject of test [1] is Aβ40 in conditioned medium of cells stably expressing Amyloid Precursor Protein (APP). Kind of test: In vitro BACE-1 cell-based assay (Aβ40 sandwich ELISA). Particulars: read-out: IC50 IP (μM) BACE1 cell. The method, boiled down:
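Read-out: time-resolved fluorescence (Streptavidin-Europium) of Aβ40 captured by pAb40 and detected with biotinylated 6E10 from supernatants of APP-stable cells. Cells were exposed to compound for 24 h, 10-point dose response, top dose 100 μM or 10 μM, 0.1% DMSO. IC50 fitted to percent of control.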
Background: In an ELISA, binding on a coated surface is turned into a signal by an enzyme label.

The target of the next test is human recombinant BACE2 (Homo sapiens (Human), UniProt Q9Y5Z0). Kind of test: In vitro enzymatic BACE2 FRET assay. Conditions: read-out: IC50 IP (μM) BACE2 enzyme. Type of test: biochemical. The method, boiled down:
as §1

In general, IC50 refers to the concentration at which inhibition is half-maximal.

Sequence of Recombinant Cat D (P07339 65-412): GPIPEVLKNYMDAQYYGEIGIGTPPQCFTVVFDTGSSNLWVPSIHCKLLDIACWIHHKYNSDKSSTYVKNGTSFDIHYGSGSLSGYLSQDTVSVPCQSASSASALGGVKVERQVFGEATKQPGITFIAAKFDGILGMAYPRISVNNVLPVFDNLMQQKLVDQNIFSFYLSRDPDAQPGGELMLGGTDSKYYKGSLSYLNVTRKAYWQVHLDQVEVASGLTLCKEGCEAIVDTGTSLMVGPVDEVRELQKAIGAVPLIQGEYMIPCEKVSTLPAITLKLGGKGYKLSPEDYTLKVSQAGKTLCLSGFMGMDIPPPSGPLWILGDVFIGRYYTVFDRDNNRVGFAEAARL
Sequence of human recombinant BACE2 (Q9Y5Z0 63-518): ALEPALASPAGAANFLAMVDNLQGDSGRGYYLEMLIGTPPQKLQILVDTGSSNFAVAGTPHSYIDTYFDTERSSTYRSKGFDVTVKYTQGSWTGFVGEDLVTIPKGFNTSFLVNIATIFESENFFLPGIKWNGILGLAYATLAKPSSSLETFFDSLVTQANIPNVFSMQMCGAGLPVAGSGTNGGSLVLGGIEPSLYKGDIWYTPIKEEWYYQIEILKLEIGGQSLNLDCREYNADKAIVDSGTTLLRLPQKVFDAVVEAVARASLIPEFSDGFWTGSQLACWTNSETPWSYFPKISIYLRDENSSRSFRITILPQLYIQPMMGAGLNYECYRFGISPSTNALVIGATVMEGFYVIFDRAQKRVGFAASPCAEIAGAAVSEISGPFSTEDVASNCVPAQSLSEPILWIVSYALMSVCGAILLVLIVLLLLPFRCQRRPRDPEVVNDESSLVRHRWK
Sequence of human recombinant BACE1 (P56817 46-501): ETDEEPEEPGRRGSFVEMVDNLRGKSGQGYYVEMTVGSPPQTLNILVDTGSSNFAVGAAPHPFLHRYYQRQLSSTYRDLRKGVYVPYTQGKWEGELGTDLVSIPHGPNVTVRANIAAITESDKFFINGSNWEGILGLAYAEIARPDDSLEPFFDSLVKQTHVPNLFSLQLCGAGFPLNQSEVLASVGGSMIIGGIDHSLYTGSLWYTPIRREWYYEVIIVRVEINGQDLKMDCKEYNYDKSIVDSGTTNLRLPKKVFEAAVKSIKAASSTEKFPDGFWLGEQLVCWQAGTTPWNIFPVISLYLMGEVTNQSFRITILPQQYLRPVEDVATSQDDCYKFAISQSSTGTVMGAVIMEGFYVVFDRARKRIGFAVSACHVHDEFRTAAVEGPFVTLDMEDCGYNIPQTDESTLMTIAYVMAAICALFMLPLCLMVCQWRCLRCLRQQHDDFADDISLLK

For the molecule `C#CCOc1cnc(C(=O)Nc2cc(F)c(F)c([C@@]3(C)N=C(N)S[C@@]4(C#N)C[C@H]43)c2)c(C)c1` [Example 1016, N-(3-((1S,5S,6S)-3-amino-1-cyano-5-methyl-2-thia-4-azabicyclo[4.1.0]hept-3-en-5-yl)-4,5-difluorophenyl)-3-methyl-5-(2-propyn-1-yloxy)-2-pyridinecarboxamide], the IC50 at human recombinant BACE1 was 0.00104 µM; on Recombinant Cat D it was over 400 µM; in test [1], 0.0119 µM; on human recombinant BACE2 it was 0.00764 µM.

`C#CCOc1cnc(C(=O)Nc2ccc(F)c([C@@]3(C)N=C(N)S[C@@]4(C(=O)NCC)C[C@H]43)c2)cn1` [Example 1017, (1S,5S,6S)-3-amino-N-ethyl-5-(2-fluoro-5-(5-(prop-2-yn-1-yloxy)pyrazine-2-carboxamido)phenyl)-5-methyl-2-thia-4-azabicyclo[4.1.0]hept-3-ene-1-carboxamide]: the IC50 is 0.000266 µM on human recombinant BACE1, 22.5 µM on Recombinant Cat D, 0.000106 µM in test [1] and 0.00982 µM at human recombinant BACE2.

For `CC(C)(CF)NC(=O)[C@]12C[C@H]1[C@@](C)(c1cc(NC(=O)c3ccc(C#N)cn3)ccc1F)N=C(N)S2` [Example 1018, (1S,5S,6S)-3-amino-5-(5-(5-cyanopicolinamido)-2-fluorophenyl)-N-(1-fluoro-2-methylpropan-2-yl)-5-methyl-2-thia-4-azabicyclo[4.1.0]hept-3-ene-1-carboxamide], the IC50 stood at 0.00116 µM at human recombinant BACE1, 211 µM on Recombinant Cat D, 0.00113 µM in test [1] and 0.00651 µM at human recombinant BACE2.

Regarding `C#C[C@H](C)Oc1cnc(C(=O)Nc2ccc(F)c([C@@]3(C)N=C(N)S[C@@]4(C(=O)NC(C)(C)CF)C[C@H]43)c2)cn1` [Example 1019, (1S,5S,6S)-3-amino-5-(5-(5-((S)-but-3-yn-2-yloxy)pyrazine-2-carboxamido)-2-fluorophenyl)-N-(1-fluoro-2-methylpropan-2-yl)-5-methyl-2-thia-4-azabicyclo[4.1.0]hept-3-ene-1-carboxamide], the IC50 is 0.000937 µM at human recombinant BACE1, 271 µM at Recombinant Cat D, 0.00109 µM in test [1] and 0.073 µM at human recombinant BACE2.

On to `COC[C@]12C[C@H]1[C@@](C)(c1cc(NC(=O)c3cnc(OCC4CCC4)cn3)cc(F)c1F)N=C(N)S2` [Example 1020, N-(3-((1S,5S,6S)-3-amino-1-(methoxymethyl)-5-methyl-2-thia-4-azabicyclo[4.1.0]hept-3-en-5-yl)-4,5-difluorophenyl)-5-(cyclobutylmethoxy)pyrazine-2-carboxamide], for which the IC50 at human recombinant BACE1 was found to be 0.00118 µM; on Recombinant Cat D it was 783 µM; in test [1] it was 0.0248 µM; on human recombinant BACE2, 0.0998 µM.

For `COC[C@]12C[C@H]1[C@@](C)(c1cc(NC(=O)c3cnc(OCC4COC4)cn3)cc(F)c1F)N=C(N)S2` [Example 1022, N-(3-((1S,5S,6S)-3-amino-1-(methoxymethyl)-5-methyl-2-thia-4-azabicyclo[4.1.0]hept-3-en-5-yl)-4,5-difluorophenyl)-5-(3-oxetanylmethoxy)-2-pyrazinecarboxamide], the IC50 on human recombinant BACE1 was 0.00572 µM; at Recombinant Cat D, over 400 µM; in test [1], 0.0331 µM; at human recombinant BACE2, 0.579 µM.

For the molecule `COC[C@]12C[C@H]1[C@@](C)(c1cc(NC(=O)c3cnc(OCC(C)OC)cn3)cc(F)c1F)N=C(N)S2` (stereo partly drawn) [Example 1023, N-(3-((1S,5S,6S)-3-amino-1-(methoxymethyl)-5-methyl-2-thia-4-azabicyclo[4.1.0]hept-3-en-5-yl)-4,5-difluorophenyl)-5-(2-methoxypropoxy)pyrazine-2-carboxamide], the IC50 on human recombinant BACE1 is 0.00319 µM; at Recombinant Cat D, 1360 µM; in test [1] it was 0.0135 µM; at human recombinant BACE2, 0.204 µM.

On to `COC[C@H](C)Oc1cnc(C(=O)Nc2cc(F)c(F)c([C@@]3(C)N=C(N)S[C@@]4(COC)C[C@H]43)c2)cn1` [Example 1024, N-(3-((1S,5S,6S)-3-amino-1-(methoxymethyl)-5-methyl-2-thia-4-azabicyclo[4.1.0]hept-3-en-5-yl)-4,5-difluorophenyl)-5-((1S)-2-methoxy-1-methylethoxy)-2-pyrazinecarboxamide], for which the IC50 on human recombinant BACE1 worked out at 0.00214 µM; on Recombinant Cat D it was 884 µM; in test [1], 0.0222 µM; at human recombinant BACE2, 0.313 µM.

With `COC[C@]12C[C@H]1[C@@](C)(c1cc(NC(=O)c3cnc(OCC(F)F)cn3)cc(F)c1F)N=C(N)S2` [Example 1025, N-(3-((1S,5S,6S)-3-amino-1-(methoxymethyl)-5-methyl-2-thia-4-azabicyclo[4.1.0]hept-3-en-5-yl)-4,5-difluorophenyl)-5-(2,2-difluoroethoxy)-2-pyrazinecarboxamide], the IC50 on human recombinant BACE1 stood at 0.00169 µM; on Recombinant Cat D it was 1700 µM; in test [1], 0.0142 µM; on human recombinant BACE2, 0.13 µM.

`COC[C@]12C[C@H]1[C@@](C)(c1cc(NC(=O)c3cnc(OCC4CC(F)(F)C4)cn3)cc(F)c1F)N=C(N)S2` [Example 1026, N-(3-((1S,5S,6S)-3-amino-1-(methoxymethyl)-5-methyl-2-thia-4-azabicyclo[4.1.0]hept-3-en-5-yl)-4,5-difluorophenyl)-5-((3,3-difluorocyclobutyl)methoxy)-2-pyrazinecarboxamide]: the IC50 at human recombinant BACE1 was found to be 0.00496 µM; at Recombinant Cat D it was 475 µM; in test [1] it was 0.0936 µM; at human recombinant BACE2, 0.115 µM.

Take `COC[C@]12C[C@H]1[C@@](C)(c1cc(NC(=O)c3c[nH]c(=O)cn3)cc(F)c1F)N=C(N)S2` [Example 1027, N-(3-((1S,5S,6S)-3-amino-1-(methoxymethyl)-5-methyl-2-thia-4-azabicyclo[4.1.0]hept-3-en-5-yl)-4,5-difluorophenyl)-5-oxo-4,5-dihydro-2-pyrazinecarboxamide]: the IC50 on human recombinant BACE1 is 0.0196 µM; at Recombinant Cat D, 981 µM; in test [1] it was 0.136 µM; on human recombinant BACE2, 0.0565 µM.

With `COC[C@]12C[C@H]1[C@@](C)(c1cc(NC(=O)c3cnc(OCC(C)C)cn3)cc(F)c1F)N=C(N)S2` [Example 1028, N-(3-((1S,5S,6S)-3-amino-1-(methoxymethyl)-5-methyl-2-thia-4-azabicyclo[4.1.0]hept-3-en-5-yl)-4,5-difluorophenyl)-5-(2-methylpropoxy)-2-pyrazinecarboxamide], the concentration for half-maximal inhibition (IC50) at human recombinant BACE1 was 0.00195 µM; at Recombinant Cat D it was 135 µM; in test [1], 0.0293 µM; at human recombinant BACE2, 0.226 µM.

Regarding `COC[C@]12C[C@H]1[C@@](C)(c1cc(NC(=O)c3cnc(OCC4CCO4)cn3)cc(F)c1F)N=C(N)S2` (stereo partly drawn) [Example 1029, N-(3-((1S,5S,6S)-3-amino-1-(methoxymethyl)-5-methyl-2-thia-4-azabicyclo[4.1.0]hept-3-en-5-yl)-4,5-difluorophenyl)-5-(oxetan-2-ylmethoxy)pyrazine-2-carboxamide], the half-inhibitory concentration (IC50) at human recombinant BACE1 is 0.00741 µM; at Recombinant Cat D it was 1140 µM; in test [1], 0.0541 µM; on human recombinant BACE2 it was 0.459 µM.

In the case of `C=C(C)COc1cnc(C(=O)Nc2cc(F)c(F)c([C@@]3(C)N=C(N)S[C@@]4(COC)C[C@H]43)c2)cn1` [Example 1030, N-(3-((1S,5S,6S)-3-amino-1-(methoxymethyl)-5-methyl-2-thia-4-azabicyclo[4.1.0]hept-3-en-5-yl)-4,5-difluorophenyl)-5-((2-methyl-2-propen-1-yl)oxy)-2-pyrazinecarboxamide], the IC50 on human recombinant BACE1 amounted to 0.00213 µM; on Recombinant Cat D it was 243 µM; in test [1], 0.0414 µM; on human recombinant BACE2 it was 0.072 µM.

For `COC[C@]12C[C@H]1[C@@](C)(c1cc(NC(=O)c3cnc(OCc4cc(C)no4)cn3)cc(F)c1F)N=C(N)S2` [Example 1031, N-(3-((1S,5S,6S)-3-amino-1-(methoxymethyl)-5-methyl-2-thia-4-azabicyclo[4.1.0]hept-3-en-5-yl)-4,5-difluorophenyl)-5-((3-methyl-5-isoxazolyl)methoxy)-2-pyrazinecarboxamide], the IC50 was 0.00107 µM at human recombinant BACE1, 775 µM on Recombinant Cat D, 0.152 µM in test [1] and 0.0897 µM on human recombinant BACE2.

As to `COC[C@]12C[C@H]1[C@@](C)(c1cc(NC(=O)c3cnc(OCc4cc(C)on4)cn3)cc(F)c1F)N=C(N)S2` [Example 1032, N-(3-((1S,5S,6S)-3-amino-1-(methoxymethyl)-5-methyl-2-thia-4-azabicyclo[4.1.0]hept-3-en-5-yl)-4,5-difluorophenyl)-5-((5-methyl-3-isoxazolyl)methoxy)-2-pyrazinecarboxamide], the IC50 at human recombinant BACE1 turned out to be 0.00106 µM; at Recombinant Cat D it was 1020 µM; in test [1] it was 0.0323 µM; on human recombinant BACE2, 0.0465 µM.

As for `COC[C@]12C[C@H]1[C@@](C)(c1cc(NC(=O)c3cnc(OCc4ccccc4)cn3)cc(F)c1F)N=C(N)S2` [Example 1033, N-(3-((1S,5S,6S)-3-amino-1-(methoxymethyl)-5-methyl-2-thia-4-azabicyclo[4.1.0]hept-3-en-5-yl)-4,5-difluorophenyl)-5-(benzyloxy)-2-pyrazinecarboxamide], the IC50 at human recombinant BACE1 was 0.00105 µM; at Recombinant Cat D, 230 µM; in test [1] it was 0.101 µM; on human recombinant BACE2, 0.0323 µM.
